From PMC12363342, “Investigating the N-terminal linker histone H1 subtypes as substrates for JmjC lysine demethylases” (RSC Chemical Biology, 2025)
Square brackets hold non-standard residues; d marks the D form. Ends that are not written are not given here. Lys(Me3) = C[N+](C)(C)CCCC[C@H](N)C(=O)O

What was measured:
KDM3C = test: LC-MS demethylation activity assay, KDM3C; assay type: biochemical, human; conditions: 2 μM KDM, 10 μM H1/H3 peptide, 10 μM FAS, 100 μM LAA, 20 μM 2OG, 50 mM HEPES pH 7.5, 2 h, room temperature, T (tri-) initial methylation state
Procedure, shortened: (§1)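 H1 isoform peptides (10 μM) were incubated 2 h at room temperature with 2 μM recombinant N-terminally His6-tagged catalytic domains in 50 mM HEPES pH 7.5 containing FAS (10 μM), ascorbate (100 μM) and 2OG (20 μM). Reactions were quenched with formic acid (1% final), and demethylation was analysed by LC-MS (Q-TOF).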

KDM4D = target: T1, KDM4D (Homo sapiens, UniProt Q6B0I6); test: LC-MS demethylation activity assay, KDM4D; assay type: biochemical; conditions: room temperature; for substrate conversion (demethylation) by KDM4D / di-methylated product formed by KDM4D / mono-methylated product formed by KDM4D: 2 μM KDM4D, 10 μM peptide; for substrate conversion (demethylation) by KDM4D / KDM4D demethylation activity, T: 10 μM FAS, 100 μM LAA, 20 μM 2OG; for substrate conversion (demethylation) by KDM4D: HEPES pH 7.5, 2 h; for di-methylated product formed by KDM4D / mono-methylated product formed by KDM4D: standard conditions, 2 h; for KDM4D demethylation activity, T: 2 μM KDM, 10 μM H1/H3 peptide, 50 mM HEPES pH 7.5, 2 h, T (tri-) initial methylation state
T1 construct: KDM4AM1-L359,[38]; KDM4DM1-L359,[39]; KDM4EM1-R336,[30]; His6 (N); made in house; host or cells: Escherichia coli
T1 sequence (Q6B0I6 1-359): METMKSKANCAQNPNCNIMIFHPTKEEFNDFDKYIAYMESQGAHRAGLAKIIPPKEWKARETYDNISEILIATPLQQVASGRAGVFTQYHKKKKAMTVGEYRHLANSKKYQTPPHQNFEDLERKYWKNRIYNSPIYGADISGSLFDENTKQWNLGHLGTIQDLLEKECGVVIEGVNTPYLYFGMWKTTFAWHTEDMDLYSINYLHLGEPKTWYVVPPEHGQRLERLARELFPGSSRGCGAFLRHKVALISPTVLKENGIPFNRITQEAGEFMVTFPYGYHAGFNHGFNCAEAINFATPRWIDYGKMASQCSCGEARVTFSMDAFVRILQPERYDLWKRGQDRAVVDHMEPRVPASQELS
Procedure, shortened: as §1

KDM3B = test: LC-MS demethylation activity assay, KDM3B; assay type: biochemical, human; conditions: 2 μM KDM, 10 μM H1/H3 peptide, 10 μM FAS, 100 μM LAA, 20 μM 2OG, 50 mM HEPES pH 7.5, 2 h, room temperature, T (tri-) initial methylation state
Procedure, shortened: as §1

KDM6B = test: LC-MS demethylation activity assay, KDM6B; assay type: biochemical, human; conditions: 2 μM KDM, 10 μM H1/H3 peptide, 10 μM FAS, 100 μM LAA, 20 μM 2OG, 50 mM HEPES pH 7.5, 2 h, room temperature, T (tri-) initial methylation state
Procedure, shortened: as §1

KDM3A = test: LC-MS demethylation activity assay, KDM3A; assay type: biochemical, human; conditions: 2 μM KDM, 10 μM H1/H3 peptide, 10 μM FAS, 100 μM LAA, 20 μM 2OG, 50 mM HEPES pH 7.5, 2 h, room temperature, T (tri-) initial methylation state
Procedure, shortened: as §1

KKKAAK[Lys(Me3)]AGGTPRKA [Peptide H1.2K26me3, 15-mer linker histone H1.2 residues 20-34 peptide, tri-methylated K26]
KDM3C demethylation activity, T (KDM3C): ● [red]
substrate conversion (demethylation) by KDM4D (KDM4D): ~70%
di-methylated product formed by KDM4D (KDM4D): ~30%
mono-methylated product formed by KDM4D (KDM4D): ~40%
KDM4D demethylation activity, T (KDM4D): ● [green] (green dots indicate good demethylation (>50% conversion))
KDM3B demethylation activity, T (KDM3B): ● [red]
KDM6B demethylation activity, T (KDM6B): ● [red]
KDM3A demethylation activity, T (KDM3A): ● [red]

KKKAA[Lys(Me3)]KAGGTPRKA [Peptide H1.2K25me3, 15-mer linker histone H1.2 residues 20-34 peptide, tri-methylated K25]
KDM3C demethylation activity, T (KDM3C): ● [red]
KDM4D demethylation activity, T (KDM4D): ● [red]
KDM3B demethylation activity, T (KDM3B): ● [red]
KDM6B demethylation activity, T (KDM6B): ● [red]
KDM3A demethylation activity, T (KDM3A): ● [red]

KKKAR[Lys(Me3)]SAGAAKRKA [Peptide H1.4K25me3, 15-mer linker histone H1.4 residues 20-34 peptide, tri-methylated K25]
KDM3C demethylation activity, T (KDM3C): ● [red]
substrate conversion (demethylation) by KDM4D (KDM4D): ~92%
di-methylated product formed by KDM4D (KDM4D): ~30%
mono-methylated product formed by KDM4D (KDM4D): ~62%
KDM4D demethylation activity, T (KDM4D): ● [green] (green dots indicate good demethylation (>50% conversion))
KDM3B demethylation activity, T (KDM3B): ● [red]
KDM6B demethylation activity, T (KDM6B): ● [red]
KDM3A demethylation activity, T (KDM3A): ● [red]

KKKATK[Lys(Me3)]AAGAGAAK [Peptide H1.5K26me3, 15-mer linker histone H1.5 residues 20-34 peptide, tri-methylated K26]
KDM3C demethylation activity, T (KDM3C): ● [red]
KDM4D demethylation activity, T (KDM4D): ● [green] (green dots indicate good demethylation (>50% conversion))
KDM3B demethylation activity, T (KDM3B): ● [red]
KDM6B demethylation activity, T (KDM6B): ● [red]
KDM3A demethylation activity, T (KDM3A): ● [red]

KKKA[Lys(Me3)]KAGATAGKRK [Peptide H1.3K24me3, 15-mer linker histone H1.3 residues 20-34 peptide, tri-methylated K24]
KDM3C demethylation activity, T (KDM3C): ● [red]
substrate conversion (demethylation) by KDM4D (KDM4D): ~68%
di-methylated product formed by KDM4D (KDM4D): ~30%
mono-methylated product formed by KDM4D (KDM4D): ~40%
KDM4D demethylation activity, T (KDM4D): ● [green] (green dots indicate good demethylation (>50% conversion))
KDM3B demethylation activity, T (KDM3B): ● [red]
KDM6B demethylation activity, T (KDM6B): ● [red]
KDM3A demethylation activity, T (KDM3A): ● [red]
